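Where inhibition never reached the appropriate level, the endpoint shown equals the highest concentration tested. Otherwise, values were interpolated linearly from a five-concentration, 48-hour dose response in 96-well plates. Definition used: TGI = concentration required for complete inhibition of growth.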

Some test systems named below: OVCAR-3 ovarian; U251 CNS; 786-0 renal; SF-539 CNS; COLO 205 colon; NCI-H226 lung; NCI-H23 lung; HL-60(TB) leukemia; MCF7 breast; K-562 leukemia.
Assay in all cases: inhibition of tumour cell growth, NCI panel, 48 h

With `c1ccc2[nH]c(-c3nc4ccccc4o3)nc2c1`, the TGI in the test on OVCAR-3 ovarian, in the test on U251 CNS, with 786-0 renal, in the test on SF-539 CNS, in the test on COLO 205 colon and with NCI-H226 lung was more than 100 µM throughout. The TGI with NCI-H23 lung and in the test on HL-60(TB) leukemia was more than 100 µM throughout.

For `c1ccc(COc2ccc(C[P+](c3ccccc3)(c3ccccc3)c3ccccc3)cc2)cc1`, the TGI stood at 11 µM in the test with OVCAR-3 ovarian; 11.8 µM in the test with U251 CNS; 3.57 µM with 786-0 renal; 1.52 µM in the test on MCF7 breast; 3.5 µM in the test with SF-539 CNS; 3.26 µM in the test with COLO 205 colon. Also, the TGI came out at 22.4 µM with NCI-H226 lung, 1.36 µM with NCI-H23 lung and 2.17 µM with K-562 leukemia.

For `COC(=O)/C(=C/c1ccc(OC)cc1)C(C(=O)O)=C(C)C`, the TGI in the test on OVCAR-3 ovarian, in the test with U251 CNS, in the test with 786-0 renal, with SF-539 CNS, in the test with COLO 205 colon and in the test with NCI-H226 lung was more than 100 µM in each case. In addition, the TGI with NCI-H23 lung, in the test on K-562 leukemia and in the test on HL-60(TB) leukemia was more than 100 µM each time.

With `O=S(=O)(O)c1cc(Cl)c(O)c2ncc(Cl)cc12`, the TGI in the test with OVCAR-3 ovarian, with U251 CNS, in the test on 786-0 renal, in the test with MCF7 breast, in the test with SF-539 CNS and in the test with COLO 205 colon was more than 100 µM in each case. The TGI in the test with NCI-H226 lung, in the test on NCI-H23 lung and with K-562 leukemia was more than 100 µM each time.

On to `Oc1c(Cl)c2nccnc2c2ccccc12`, for which the TGI in the test on OVCAR-3 ovarian, with U251 CNS, with 786-0 renal, in the test on SF-539 CNS, in the test on COLO 205 colon and with NCI-H226 lung was more than 100 µM throughout. The TGI with NCI-H23 lung, with K-562 leukemia and in the test with HL-60(TB) leukemia was more than 100 µM throughout.

With `CSc1nc2c(c(N(C)C)n1)C=Nn1c(nc3ccccc31)S2`, the TGI in the test with OVCAR-3 ovarian, in the test on U251 CNS, in the test with 786-0 renal, in the test with COLO 205 colon, in the test on NCI-H226 lung and in the test with NCI-H23 lung was more than 100 µM each time. In the test on K-562 leukemia, this molecule registered a TGI of more than 100 µM.

Regarding `C=CCN1C(=O)CS/C1=N\NC(=O)c1c(C)nc2sccn12`, the TGI in the test with OVCAR-3 ovarian, in the test with U251 CNS, in the test with 786-0 renal, in the test with SF-539 CNS, in the test on COLO 205 colon and with NCI-H226 lung was more than 100 µM throughout. Also, the TGI in the test with NCI-H23 lung, with K-562 leukemia and in the test on HL-60(TB) leukemia was more than 100 µM throughout.

As for `COc1ccc(CN2C(=O)CCC/C=C\[C@H]2CI)cc1`, the TGI in the test with OVCAR-3 ovarian was 23.7 µM; with U251 CNS, 26.5 µM; with 786-0 renal, 27 µM; in the test on MCF7 breast, 22.5 µM; in the test on SF-539 CNS, 26.4 µM; in the test on COLO 205 colon it was 26.9 µM. Further, the TGI in the test on NCI-H226 lung is 25.5 µM; with NCI-H23 lung, 28.7 µM; in the test on K-562 leukemia it was more than 100 µM.

For `COc1cc2c(cc1OC)C(=O)N(c1ccc(O)cc1)C2`, the TGI in the test with OVCAR-3 ovarian, with U251 CNS, with 786-0 renal, with SF-539 CNS, in the test on COLO 205 colon and with NCI-H226 lung was more than 100 µM each time. The TGI in the test with NCI-H23 lung, in the test on K-562 leukemia and with HL-60(TB) leukemia was more than 100 µM throughout.

Take `NCCC1(N)CCNCC1`: the TGI in the test on U251 CNS, in the test with 786-0 renal, in the test on SF-539 CNS, in the test with COLO 205 colon, in the test on NCI-H226 lung and in the test with NCI-H23 lung was more than 100 µM each time. Moreover, the TGI in the test with K-562 leukemia and with HL-60(TB) leukemia was more than 100 µM each time.

Consider `COC(=O)[C@]1(C)CCCn2c(=O)n(-c3ccccc3)c(=O)n21`, for which the TGI in the test with OVCAR-3 ovarian, in the test on U251 CNS, in the test with 786-0 renal, in the test with MCF7 breast, with SF-539 CNS and in the test with COLO 205 colon was more than 100 µM each time. Besides, the TGI in the test with NCI-H226 lung, in the test with NCI-H23 lung and with K-562 leukemia was more than 100 µM each time.

On to `CC(C)(C)C1CC[C@H]2c3c([nH]c4ccc(Br)cc34)[C@H]3C(=O)N(c4ccccc4)C(=O)[C@H]3[C@H]2C1` (stereo partly specified), for which the TGI in the test with OVCAR-3 ovarian was more than 100 µM; in the test with U251 CNS it was 36.5 µM; in the test with 786-0 renal, 23.6 µM; in the test on COLO 205 colon, 44.2 µM; in the test with NCI-H226 lung it was 81.8 µM; in the test with NCI-H23 lung, more than 100 µM. The TGI in the test on K-562 leukemia is more than 100 µM; in the test on HL-60(TB) leukemia, 35.1 µM.

`Oc1c(OCc2nnc(CCCCCCCCc3nnc(COc4ccc5ccccc5c4O)n3Nc3ccccc3)n2Nc2ccccc2)ccc2ccccc12`: the TGI in the test on OVCAR-3 ovarian was 30.6 µM; in the test with U251 CNS, 25.5 µM; in the test with 786-0 renal, 27.4 µM; in the test with MCF7 breast it was 68.1 µM; in the test with SF-539 CNS, 20 µM; with COLO 205 colon it was 1.32 µM. Also, the values for the TGI in the test on NCI-H226 lung, in the test with NCI-H23 lung and in the test on K-562 leukemia were 24.1 µM, 35.2 µM and more than 100 µM, respectively.

Consider `CN(C)[C@@H]1C(=O)C(C(N)=O)=C(O)[C@@]2(O)C(=O)C3=C(O)c4c(O)cccc4C[C@H]3C[C@@H]12`, for which the TGI worked out at 4.68 µM in the test with U251 CNS; 5.92 µM in the test on 786-0 renal; 3.84 µM in the test on SF-539 CNS; 3.25 µM in the test with COLO 205 colon; 4.27 µM with NCI-H23 lung; 6.65 µM in the test with K-562 leukemia.

As to `OCC(O)COc1ccc(Br)cc1` (stereo unspecified), the TGI with OVCAR-3 ovarian, in the test with U251 CNS, with SF-539 CNS, in the test with COLO 205 colon, in the test on NCI-H226 lung and in the test with NCI-H23 lung was more than 100 µM in each case. The TGI in the test with K-562 leukemia and in the test on HL-60(TB) leukemia was more than 100 µM each time.

The values are drawn from PubChem BioAssay (NCI).
